Reference: PMC12251482, “Floridoside Phosphotriester Derivatives: Synthesis and Inhibition of Human Neutrophils’ Oxidative Burst” (Molecules, 2025)
Values belong to the compound of their own block, whether it stands above or below them.

What was measured:
[1] = tested on: PMA-stimulated human neutrophils; assay: PMA-induced neutrophils' oxidative burst, oxidation of luminol (chemiluminescence); type: cell-based; settings: PMA 160 nM, mean ± SEM; for Luminol: highest obtained % of inhibition / inhibition at 100 µM: at 100 µM; for inhibition at 100 µM / IC50: Homo sapiens, Neutrophil; for inhibition at 100 µM: read-out: Luminol: highest obtained % of inhibition
Method: Luminol is easily oxidized by reactive species produced during neutrophils’ oxidative burst, resulting in a chemiluminescent signal. The effect of the compounds under study on the modulation of neutrophil oxidative burst was determined after stimulation with PMA, a known neutrophil activator, because its effect is closely analogous to that obtained during the phagocytic process. Following a previously reported method, in a 96-well plate, neutrophils were incubated in the dark at 37 °C for 5 min with luminol (500 μM) and the tested compounds (10–100 μM) or DMSO (final concentration 4%). Quercetin, a flavonoid known for its anti-inflammatory activity (0.3–5.0 μM), and the inhibitor of NADPH oxidase, DPI (0.01–10 μM), were used as controls. After incubation, PMA (160 nM) was added, and the chemiluminescence was measured in a microplate reader (Synergy HT, BIO-TEK Instruments, Inc., Winooski, VT, USA). Kinetic readings were initiated immediately after cell stimulation. Measurements were taken at the peak of the curve. […] Effects are expressed as the inhibition percentage of luminol oxidation. The results obtained represent at least three independent experiments. […]
3.4 Evaluation of neutrophils' oxidative burst
3.4.1 Oxidation of luminol
Luminol is easily oxidized by reactive species produced during neutrophils’ oxidative burst, resulting in a chemiluminescent signal. The eﬀect of the compounds under study on the modulation of neutrophil oxidative burst was determined after stimulation with PMA, a known neutrophil activator, because its eﬀect is closely analogous to that obtained during the phagocytic process. Following a previously reported method, in a 96-well plate, neutrophils were incubated in the dark at 37 °C for 5 minutes with luminol (500 µM) and the tested compounds (10 - 100 µM) or DMSO (ﬁnal concentration 4%). Quercetin, a ﬂavonoid known for its anti-inﬂammatory activity (0.3 - 5.0 µM), and the inhibitor of NADPH oxidase, DPI (0.01 - 10 µM), were used as positive and negative controls, respectively. After incubation, PMA (160 nM) was added, and the chemiluminescence was measured in a microplate reader (Synergy HT, BIO-TEK Instruments, Inc., Winooski, VT, USA). Kinetic readings were initiated immediately after cell stimulation. Measurements were taken at the […]
peak of the curve. […] Eﬀects are expressed as the inhibition percentage of luminol oxidation. The obtained results represent at least three independent experiments.

[2] = tested on: PMA-stimulated human neutrophils; assay: HOCl generation by PMA-stimulated neutrophils, oxidation of APF; type: cell-based; settings: PMA 160 nM, mean ± SEM; for APF: highest obtained % of inhibition / inhibition at 50 µM: at 50 µM; for inhibition at 50 µM / IC50: Homo sapiens, Neutrophil; for inhibition at 50 µM: read-out: APF: highest obtained % of inhibition
Method: APF is a non-fluorescent derivative of fluorescein, which is oxidized by HOCl, ONOO^−, and HO^• [87], in a concentration-dependent manner. Its selectivity was tested using the myeloperoxidase (MPO) inhibitor, 4-aminobenzoic acid hydrazide (ABAH). The addition of ABAH to human neutrophils, stimulated with PMA, decreased the APF-dependent fluorescence signal to the level of the control assay, ruling out the involvement of HO^• and ONOO^− [88]. The previously established methodology for monitoring oxidative burst modulation was adapted. In a 96-well plate, neutrophils (2 × 10^6 cells/mL) were incubated in the dark at 37 °C for 5 min with APF (2 μM) and the tested compounds (10–100 μM) or DMSO (4%). Quercetin (0.3–5.0 μM) and DPI (0.01–10 μM) were used as controls. After incubation, PMA (160 nM) was added, and the fluorescence (excitation at 495 nm and emission at 528 nm) was measured in a microplate reader (Synergy HT, BIO-TEK Instruments, Inc., Winooski, VT, USA). Kinetic readings were initiated immediately after the addition of APF. Obtained values correspond to the slope measured between 5 and 15 min. Effects are expressed as the percentage inhibition of APF oxidation. The results obtained represent at least three independent experiments.
APF is a non-ﬂuorescent derivative of ﬂuorescein, which is oxidized by HOCl, [20] ONOO-, and HO• [21] in a concentration- dependent manner. Its selectivity was tested using the myeloperoxidase (MPO) inhibitor, 4-aminobenzoic acid hydrazide (ABAH). The addition of ABAH to human neutrophils, stimulated with PMA, decreased the APF-dependent ﬂuorescence signal to the level of the control assay, ruling out the involvement of HO• and ONOO− [22]. The previously established methodology for monitoring oxidative burst modulation was adapted. In a 96-well plate, neutrophils (2 x 10^6 cells/mL) were incubated in the dark at 37 °C for 5 minutes with APF (2 µM) and the tested compounds (10 - 100 µM) or DMSO (4%). Quercetin (0.3 - 5.0 µM) and DPI (0.01 - 10 µM) were used as positive and negative controls, respectively. After incubation, PMA (160 nM) was added, and the ﬂuorescence (excitation at 495 nm and emission at 528 nm) was measured in a microplate reader (Synergy HT, BIO-TEK Instruments, Inc., Winooski, VT, USA). Kinetic readings were initiated immediately after the addition of APF. Obtained values correspond to the slope measured between 5 and 15 minutes. Eﬀects are expressed as the percentage inhibition of APF oxidation. The obtained results represent at least three independent experiments. […]
(§1) GraphPad Prism 6 software was used to plot the inhibition percentage versus compound concentration curves, enabling the determination of the concentration required to achieve 50% inhibition (IC50). GraphPad Prism 6 software was also used to perform all statistical analyses.
(§2) […] was estimated by applying the one-way analysis (ANOVA), followed by the Bonferroni’s multiple comparisons test. In all cases, p-values < 0.05 were considered statistically signiﬁcant. The results are expressed as mean ± standard error of the mean (SEM).

[3] = tested on: PMA-stimulated human neutrophils; assay: H2O2 generation by PMA-stimulated neutrophils, oxidation of Amplex Red; type: cell-based; settings: PMA 160 nM, mean ± SEM; for Amplex Red: highest obtained % of inhibition / inhibition at 50 µM: at 50 µM; for inhibition at 50 µM / IC50: Homo sapiens, Neutrophil; for inhibition at 50 µM: read-out: Amplex Red: highest obtained % of inhibition
Method: Amplex Red is a highly sensitive and chemically stable fluorescent probe for the extracellular detection of H2O2 [82]. The methodology used previously for monitoring the modulation of the oxidative burst was adapted. In a 96-well plate, neutrophils (2 × 10^6 cells/mL) were incubated in the dark at 37 °C for 5 min with Amplex Red (25 μM), horseradish peroxidase (0.25 U/mL), and the compounds under study (10–100 μM) or DMSO (4%). Quercetin (0.3–5.0 μM) and DPI (0.01–10 μM) were used as controls. After incubation, PMA (160 nM) was added, and the fluorescence (excitation at 530 nm and emission at 590 nm) was measured in a microplate reader (Synergy HT, BioTek Instruments, Inc., Winooski, VT, USA). Obtained values correspond to the slope measured between 5 and 10 min. Effects are expressed as the percentage inhibition of Amplex Red oxidation. The results obtained represent at least three independent experiments. […] 3.4.3 Oxidation of Amplex Red
Amplex Red is a highly sensitive and chemically stable ﬂuorescent probe for the extracellular detection of H2O2 [16]. The methodology used previously for monitoring the modulation of the oxidative burst was adapted.
In a 96-well plate, neutrophils (2 x 10^6 cells/mL) were incubated in the dark at 37 °C for 5 minutes with Amplex Red (25 µM), horseradish peroxidase (0.25 U/mL) , and the compounds under study (10 - 100 µM) or DMSO (4%). Quercetin (0.3 - 5.0 µM) and DPI (0.01 - 10 µM) were used as positive controls for inhibition. After incubation, PMA (160 nM) was added, and the ﬂuorescence (excitation at 530 nm and emission at 590 nm) was measured in a microplate reader (Synergy HT, BioTek Instruments, Inc., Winooski, VT, USA). Obtained values correspond to the slope measured between 5 and 10 minutes. Eﬀects are expressed as the percentage inhibition of Amplex Red oxidation. The obtained results represent at least three independent experiments.
as §1, §2

[4] = tested on: RAW 264.7 macrophages; design: method as in PMID 11292070, doi:10.1016/j.fbio.2025.105894; settings: read-out: IC50 for the inhibition of •NO; cited from earlier work

Compound: 3-Hydroxy-2-(galactopyranosyl)propyl bis(3-phenylpropyl) phosphate [Compound 1f]
Luminol: highest obtained % of inhibition [1]: <20% ^100µM
APF: highest obtained % of inhibition [2]: <20% ^50µM
Amplex Red: highest obtained % of inhibition [3]: <20% ^50µM

Compound: 3-Hydroxy-2-galactopyranosylpropyl (bis(2-aminoethyl)) phosphate [Compound 1c]
Luminol: highest obtained % of inhibition [1]: <20% ^100µM
APF: highest obtained % of inhibition [2]: 22 ± 8% ^50µM
Amplex Red: highest obtained % of inhibition [3]: <20% ^50µM

Compound: NCCOP(=O)(OCCN)OCC1OC(OC(CO)CO)C(O)C(O)C1O (stereo not shown) [Compound 1d]
inhibition at 100 µM [1]: < 20%
inhibition at 50 µM [2]: 21 ± 6%
inhibition at 50 µM [3]: 30 ± 9%

Compound: COc1ccc(CCCOP(=O)(OCCCc2ccc(OC)c(OC)c2)OCC(CO)OC2OC(CO)C(O)C(O)C2O)cc1OC (stereo not shown) [Compound 1g, 3-Hydroxy-2-(galactopyranosyl)propyl (bis(3-(3,4-dimethoxyphenyl)propyl) phosphate]
inhibition at 100 µM [1]: < 20%
inhibition at 50 µM [2]: < 20%
inhibition at 50 µM [3]: < 20%

Compound: c1ccc2c(c1)[I+]c1ccccc1-2 [DPI, diphenyleneiodonium chloride, reference compound]
IC50 [1]: 80 ± 10 nM
IC50 [2]: 30 ± 3 nM
IC50 [3]: 60 ± 4 nM

IC50 [1]: 1200 ± 200 nM
IC50 [2]: 2400 ± 200 nM
IC50 [3]: 4100 ± 300 nM
Compound: O=c1c(O)c(-c2ccc(O)c(O)c2)oc2cc(O)cc(O)c12 [Quercetin, quercetin, reference compound]

Compound: COc1ccc2c(c1)c(CC(=O)O)c(C)n2C(=O)c1ccc(Cl)cc1 [indomethacin]
IC50 [4]: 10100 nM
